According to article PMC3176258, “A genomic biomarker signature can predict skin sensitizers using a cell-based in vitro alternative to animal tests” (BMC Genomics, 2011):
≈ marks a conversion by molar mass, not a printed value. Where two headings read alike, the source gives them in different places. Values belong to the molecule of their own block, whether it stands above or below them.

How the values were obtained:
MUTZ-3 cells [1] = test: Cytotoxicity by propidium iodide, relative viability
Description: A panel of 40 chemical compounds, consisting of 20 sensitizers and 20 non-sensitizers were used for cell stimulations. […] All chemicals were from Sigma-Aldrich, St. Louis, MO, USA. Compounds were dissolved in either dimethyl sulfoxide (DMSO) or distilled water. Prior to stimulations, the cytotoxicity of all compounds was monitored, using propidium iodide (PI) (BD Biosciences, San Diego, CA) using protocol provided by the manufacturer. The relative viability of stimulated cells was calculated as [drawing 1]
For toxic compounds, the concentration yielding 90% relative viability (Rv90) was used. For non-toxic compounds, a concentration of 500 μM was used. For non-toxic compounds that were insoluble at 500 μM in medium, the highest soluble concentration was used. For compounds dissolved in DMSO, the final concentration of DMSO in each well was 0.1%.
The human myeloid leukemia-derived cell line MUTZ-3 (DSMZ, Braunschweig, Germany) was maintained in α-MEM (Thermo Scientific Hyclone, Logan, UT) supplemented with 20% (volume/volume) fetal calf serum (Invitrogen, Carlsbad, CA) and 40 ng/ml rhGM-CSF (Bayer HealthCare Pharmaceuticals, Seattle, WA), as described. Cultures were maintained at 200.000 cells/ml during expansion, with a media change every 3-4 days. No differentiating steps were performed. Instead, the proliferating progenitor MUTZ-3 was used for stimulations, as delivered by the supplier. Prior to each experiment, the cells were immunophenotyped using flow cytometry as a quality control. Cells were seeded in 6-well plates at 200.000 cells/ml. Stock solutions of each compound were prepared in either DMSO or distilled water, and were subsequently diluted so the in-well concentrations corresponded to the Rv90 value, and in-well concentrations of DMSO were 0.1%. Cells were incubated for 24 h at 37°C and 5% CO2. Thereafter, cells were harvested and analyzed by flow cytometry. In parallel, harvested cells were lysed in TRIzol reagent (Invitrogen) and stored at -20°C until RNA extraction. Stimulations with chemicals were performed in three individual experiments, so that triplicates samples were obtained.

MUTZ-3 cells [2] = test: CD86 cell surface expression by flow cytometry after 24 h stimulation; assay type: cell-based, human; conditions: for CD86 surface expression: flow cytometry, Student's t test
Description: CD86 is the most extensively studied biomarker for sensitization to date, using e.g. monocyte derived dendritic cells (MoDCs) or human cell lines and their progenitors, such as THP-1, U-937 and KG-1. Thus, as a reference, cell surface expression of CD86 was measured with flow cytometry after 24 h stimulation, using 20 sensitizers and 20 non-sensitizers, as well as vehicle controls (Figure 2). […]. […] Consequently, CD86 cannot classify skin sensitizers, using a system based on MUTZ-3 cells.
No differentiating steps were performed. […] Thereafter, cells were harvested and analyzed by flow cytometry.
All cell surface staining and washing steps were performed in PBS containing 1% BSA (w/v). Cells were incubated with specific mouse mAbs for 15 min at 4°C. The following mAbs were used for flow cytometry: FITC-conjugated CD1a (DakoCytomation, Glostrup, Denmark), CD34, CD86, and HLA-DR (BD Biosciences), PE-conjugated CD14 (DakoCytomation), CD54 and CD80 (BD Biosciences). Mouse IgG1, conjugated to FITC or PE were used as isotype controls (BD Biosciences) and PI was used to assess cell viability. FACSDiva software was used for data acquisition with FACSCanto II instrument (BD Bioscience). 10,000 events were acquired and gates were set based on light scatter properties to exclude debris and nonviable cells. Further data analysis was performed using FCS Express V3 (De Novo Software, Los Angeles, CA).

MUTZ-3 cells [3] = test: Transcriptional profiling (Affymetrix Human Gene 1.0 ST arrays, PCA) after 24 h stimulation; assay type: cell-based; conditions: for Potency predicted by Prediction Signature gene expression profile: 200 transcripts, PCA, compared with LLNA potency, Figure 4C
mice = conditions: cited from earlier work
physchem = conditions: aqueous buffer, kinetic from dmso stock
Max solubility in medium = conditions: aqueous buffer, kinetic from dmso stock
[4] = concentration yielding 90% relative viability, propidium iodide
[5] = 1137 genes, multi-group ANOVA, Figure 3D
[6] = sensitizing potency category according to LLNA, ref (14, 15, 45-48)
[7] = 1010 transcripts, one-way ANOVA, one or more replicate, Figure 3B

Molecule: O=[N+]([O-])c1ccc(Cl)c([N+](=O)[O-])c1 [2,4-Dinitrochlorobenzene]
Rv90 (MUTZ-3 cells [1]; [4]): 4 µM
CD86 surface expression (MUTZ-3 cells [2]): significantly up-regulated
PCA grouping, each individual stimulation (MUTZ-3 cells [3]; [5]): group together, separate from the negative group
Potency (mice; mouse, in vivo): Extreme [15]

Molecule: Nc1ccccc1O [2-Aminophenol]
Rv90 (MUTZ-3 cells [1]; [4]): 100 µM
CD86 surface expression (MUTZ-3 cells [2]): significantly up-regulated
frequency of CD86-positive cells (MUTZ-3 cells [2]; one representative experiment out of three, Figure 2A): 60.4%
PCA grouping, each individual stimulation (MUTZ-3 cells [3]): group together, separate from the negative group
Potency (mice; mouse, in vivo): Strong [46]

Molecule: C=CC(=O)OCCO [2-Hydroxyethyl acrylate]
Rv90 (MUTZ-3 cells [1]; [4]): 100 µM
CD86 surface expression (MUTZ-3 cells [2]): significantly up-regulated
Potency predicted by Prediction Signature gene expression profile (MUTZ-3 cells [3]): showed resemblance to strong and extreme sensitizers
PCA grouping, each individual stimulation (MUTZ-3 cells [3]; [5]): group together, separate from the negative group

solubility (physchem): 250 µM (≈ 41.8 µg/mL)
Molecule: Sc1nc2ccccc2s1 [2-Mercaptobenzothiazole]
CD86 surface expression (MUTZ-3 cells [2]): significantly up-regulated
PCA grouping, each individual stimulation (MUTZ-3 cells [3]; [5]): group together, separate from the negative group
Potency (mice; [6]): Moderate [46]

Molecule: Nc1ccc(N)c([N+](=O)[O-])c1 [2-nitro-1,4-Phenylendiamine]
CD86 surface expression (MUTZ-3 cells [2]): significantly up-regulated
PCA grouping, each individual stimulation (MUTZ-3 cells [3]; [5]): group together, separate from the negative group

Molecule: O=Cc1ccccc1 [Benzaldehyde]
solubility (physchem): 250 µM (≈ 26.5 µg/mL)

Molecule: Clc1ccccc1 [Chlorobenzene]
solubility (Max solubility in medium): 98 µM (≈ 11 µg/mL)

Molecule: O=C/C=C/c1ccccc1 [Cinnamaldehyde]
Rv90 (MUTZ-3 cells [1]; [4]): 120 µM
CD86 surface expression (MUTZ-3 cells [2]): significantly up-regulated
Potency (mice; [6]): Moderate [47]

solubility (physchem): 500 µM (≈ 67.1 µg/mL)
Molecule: OC/C=C/c1ccccc1 [Cinnamic alcohol]
PCA grouping, each individual stimulation (MUTZ-3 cells [3]; [5]): group together, separate from the negative group
Potency (mice; [6]): Weak [46]

Molecule: NCCN [Ethylendiamine]
Potency predicted by Prediction Signature gene expression profile (MUTZ-3 cells [3]): grouped together with weak sensitizers
PCA grouping, sensitizing vs. non-sensitizing chemicals (MUTZ-3 cells [3]; [7]): grouped together with the control group
Potency (mice; mouse, in vivo): Moderate [14]

Molecule: C=CCc1ccc(O)c(OC)c1 [Eugenol]
Rv90 (MUTZ-3 cells [1]; human, 24 h): 300 µM
PCA grouping, sensitizing vs. non-sensitizing chemicals (MUTZ-3 cells [3]; [7]): grouped together with the control group
Potency (mice; mouse, in vivo): Weak [47]

Molecule: C=O [Formaldehyde]
Rv90 (MUTZ-3 cells [1]): 80 µM
PCA grouping, each individual stimulation (MUTZ-3 cells [3]): group together, separate from the negative group
Potency (mice; mouse, in vivo): Strong [15]

Molecule: O=CC=O [Glyoxal]
Rv90 (MUTZ-3 cells [1]): 300 µM
Potency predicted by Prediction Signature gene expression profile (MUTZ-3 cells [3]): grouped together with weak sensitizers
PCA grouping, sensitizing vs. non-sensitizing chemicals (MUTZ-3 cells [3]; [7]): grouped together with the control group
Potency (mice; mouse, in vivo): Moderate [46]

solubility (physchem): 32.3 µM (≈ 7 µg/mL)
Molecule: CCCCCCC(C=O)=Cc1ccccc1 [Hexylcinnamic aldehyde]
Potency predicted by Prediction Signature gene expression profile (MUTZ-3 cells [3]): grouped together with weak sensitizers
PCA grouping, sensitizing vs. non-sensitizing chemicals (MUTZ-3 cells [3]; [7]): grouped together with the control group
Potency (mice; [6]): Moderate [15]

Molecule: CCCCCCCC(=O)O [Octanoic acid]
PCA grouping, sensitizing vs. non-sensitizing chemicals (MUTZ-3 cells [3]; [7]): grouped closely with the sensitizers

Molecule: CCO/C=C1\N=C(c2ccccc2)OC1=O [Oxazolone]
Potency (mice; mouse, in vivo): Extreme [15]

Molecule: CC1(C)S[C@@H]2[C@H](NC(=O)Cc3ccccc3)C(=O)N2[C@H]1C(=O)O [Penicillin G]
PCA grouping, sensitizing vs. non-sensitizing chemicals (MUTZ-3 cells [3]; [7]): grouped together with the control group

Molecule: Oc1ccccc1 [Phenol]
PCA grouping, sensitizing vs. non-sensitizing chemicals (MUTZ-3 cells [3]): grouped closely with the sensitizers

Molecule: [K+].[K+].[O]=[Cr](=[O])([O-])[O][Cr](=[O])(=[O])[O-] [Potassium dichromate]
CD86 surface expression (MUTZ-3 cells [2]): significantly up-regulated
PCA grouping, each individual stimulation (MUTZ-3 cells [3]): discrete profile
Potency (mice; mouse, in vivo): Extreme [14]

Molecule: Oc1cccc(O)c1 [Resorcinol]
CD86 surface expression (MUTZ-3 cells [2]): significantly up-regulated
PCA grouping, sensitizing vs. non-sensitizing chemicals (MUTZ-3 cells [3]; [7]): grouped together with the control group
PCA grouping, each individual stimulation (MUTZ-3 cells [3]; [5]): group together, separate from the negative group
Potency (mice; [6]): Moderate [48]

Molecule: CCCCCCCCCCCCOS(=O)(=O)[O-].[Na+] [Sodium dodecyl sulphate]
Rv90 (MUTZ-3 cells [1]): 200 µM

solubility (physchem): 250 µM (≈ 34.5 µg/mL)
Molecule: O=C(O)c1ccc(O)cc1 [p-Hydroxybenzoic acid]

Molecule: Nc1ccc(N)cc1 [p-Phenylendiamine]
Rv90 (MUTZ-3 cells [1]): 75 µM
CD86 surface expression (MUTZ-3 cells [2]): significantly up-regulated
PCA grouping, each individual stimulation (MUTZ-3 cells [3]; [5]): group together, separate from the negative group
Potency (mice; [6]): Strong [47]

Molecule: Isoeugenol
PCA grouping, sensitizing vs. non-sensitizing chemicals (MUTZ-3 cells [3]; [7]): grouped together with the control group

Molecule: Tween 80
PCA grouping, sensitizing vs. non-sensitizing chemicals (MUTZ-3 cells [3]; [7]): grouped closely with the sensitizers
